Assays:
AMARE [1] = assay: Pre-emergence herbicidal action against AMARE; type: in vivo, Amaranthus retroflexus
How it was run: (§1)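 Seeds sown in sandy loam, soil-covered; compound sprayed on soil surface pre-emergence. Application: WP/EC, 600–800 l/ha, 0.2% wetting agent. Readout: visual % damage at 3 weeks.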

ALOMY [2] = assay: Pre-emergence herbicidal action against ALOMY; type: in vivo, Alopecurus myosuroides; conditions: 80 g/ha, pre-emergence, scored visually after 3 weeks vs untreated controls (100% = plants have died, 0% = like control plants)
How it was run: as §1

VERPE [3] = assay: Pre-emergence herbicidal action against VERPE; type: in vivo, Veronica persica
How it was run: as §1

SETVI [4] = assay: Pre-emergence herbicidal action against SETVI; type: in vivo, Setaria viridis
How it was run: as §1

PHBPU [5] = assay: Post-emergence herbicidal action against PHBPU; type: in vivo, Pharbitis purpurea
How it was run: (§2)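 Percent herbicidal action is rated by eye about 3 weeks after treatment against untreated controls, where 100% means dead plants and 0% means like controls. Plants in sandy loam are sprayed on green parts at the one-leaf stage with aqueous WP or EC preparations at 600 to 800 l/ha plus 0.2% wetting agent.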

ECHCG [6] = assay: Post-emergence herbicidal action against ECHCG; type: in vivo, Echinochloa crus-galli
How it was run: as §2

MATIN [7] = assay: Pre-emergence herbicidal action against MATIN; type: in vivo, Matricaria inodora
How it was run: as §1

DIGSA [8] = assay: Post-emergence herbicidal action against DIGSA; type: in vivo, Digitaria sanguinalis; conditions: for Post-emergence action against DIGSA: 20 g/ha
How it was run: as §2

ABUTH [9] = assay: Post-emergence herbicidal action against ABUTH; type: in vivo, Abutilon theophrasti; conditions: visual assessment about 3 weeks after treatment vs untreated controls
How it was run: as §2

DIGSA [10] = assay: Pre-emergence herbicidal action against DIGSA; type: in vivo, Digitaria sanguinalis
How it was run: as §1

AVEFA [11] = assay: Post-emergence herbicidal action against AVEFA; type: in vivo, Avena fatua; conditions: visual assessment about 3 weeks after treatment, 100% = plants have died, 0% = like control plants
How it was run: as §2

AMARE [12] = assay: Post-emergence herbicidal action against AMARE; type: in vivo, Amaranthus retroflexus; conditions: 20 g/ha, visual assessment about 3 weeks after treatment, 100% = plants have died, 0% = like control plants
How it was run: as §2

VERPE [13] = assay: Post-emergence herbicidal action against VERPE; type: in vivo, Veronica persica; conditions: 20 g/ha
How it was run: as §2

ECHCG [14] = assay: Pre-emergence herbicidal action against ECHCG; type: in vivo, Echinochloa crus-galli
How it was run: as §1

POLCO = assay: Pre-emergence herbicidal action against POLCO; type: in vivo, Polygonum convolvulus; conditions: dosage 80 g/ha
How it was run: as §1

ABUTH [15] = assay: Pre-emergence herbicidal action against ABUTH; type: in vivo, Abutilon theophrasti; conditions: for Pre-emergence action against ABUTH (herbicidal activity): 80 g/ha, scored visually after 3 weeks vs untreated controls (100% = plants have died, 0% = like control plants); for Pre-emergence action against ABUTH (herbicidal activity in percent): dosage 20 g/ha, scored visually after 3 weeks vs untreated controls, 100% = plants have died, 0% = like control plants
How it was run: as §1

MATIN [16] = assay: Post-emergence herbicidal action against MATIN; type: in vivo, Matricaria inodora; conditions: dosage 20 g/ha
How it was run: as §2

VIOTR [17] = assay: Pre-emergence herbicidal action against VIOTR; type: in vivo, Viola tricolor
How it was run: as §1

SETVI [18] = assay: Post-emergence herbicidal action against SETVI; type: in vivo, Setaria viridis
How it was run: as §2

AVEFA [19] = assay: Pre-emergence herbicidal action against AVEFA; type: in vivo, Avena fatua; conditions: for Pre-emergence action against AVEFA in %: 80 g/ha
How it was run: as §1

VIOTR [20] = assay: Post-emergence herbicidal action against VIOTR; type: in vivo, Viola tricolor
How it was run: as §2

ALOMY [21] = assay: Post-emergence herbicidal action against ALOMY; type: in vivo, Alopecurus myosuroides; conditions: dosage 20 g/ha, visual assessment about 3 weeks after treatment vs untreated controls
How it was run: as §2

PHBPU [22] = assay: Pre-emergence herbicidal action against PHBPU; type: in vivo, Pharbitis purpurea; conditions: dosage 80 g/ha
How it was run: as §1

[23] = 20 g/ha, scored visually after 3 weeks vs untreated controls, 100% = plants have died, 0% = like control plants
[24] = 80 g/ha, scored visually after 3 weeks vs untreated controls (100% = plants have died, 0% = like control plants)

| Structure (SMILES) | Pre-emergence action against AMARE in % (AMARE [1]; [23]) [%] | Pre-emergence action against AMARE in % (AMARE [1]; [24]) [%] | Pre-emergence action against ALOMY (herbicidal activity) (ALOMY [2]) [%] | Pre-emergence action against VERPE in % (VERPE [3]; dosage 80 g/ha) [%] | Pre-emergence action against SETVI in % (SETVI [4]; dosage 80 g/ha) [%] | Post-emergence action against PHBPU in % (PHBPU [5]; dosage 20 g/ha) [%] | Post-emergence action against ECHCG in % (ECHCG [6]; dosage 5 g/ha) [%] | Post-emergence action against ECHCG in % (ECHCG [6]; dosage 20 g/ha) [%] | Pre-emergence action against MATIN in % (MATIN [7]; dosage 20 g/ha) [%] | Pre-emergence action against MATIN in % (MATIN [7]; dosage 80 g/ha) [%] | Post-emergence action against ABUTH in % (ABUTH [9]; dosage 20 g/ha) [%] | Post-emergence action at 20 g/ha against AVEFA in % (AVEFA [11]) [%] | Post-emergence action at 20 g/ha against AMARE in % (AMARE [12]) [%] | Post-emergence action against VERPE in % (VERPE [13]) [%] | Pre-emergence action against ECHCG in % (ECHCG [14]; 80 g/ha) [%] | Pre-emergence action against ABUTH (herbicidal activity) (ABUTH [15]) [%] | Pre-emergence action against ABUTH (herbicidal activity in percent) (ABUTH [15]) [%] | Post-emergence action against MATIN in % (MATIN [16]) [%] | Pre-emergence action against VIOTR in % (VIOTR [17]; dosage 80 g/ha) [%] | Pre-emergence action against AVEFA in % (AVEFA [19]) [%] | also measured |
| --- | --- | --- | --- | --- | --- | --- | --- | --- | --- | --- | --- | --- | --- | --- | --- | --- | --- | --- | --- | --- | --- |
| Cc1c(C(=O)Nc2nnnn2C)ccc(C(F)F)c1C(=O)NCC(F)F [Example 1-49] | 100 | 100 | 80 | 100 | 80 | 90 | 80 | 90 | 90 | 100 | 90 | 80 | 90 | 90 | 80 | 100 | 80 | 80 | 100 | – | Post-emergence action against PHBPU in % (PHBPU [5]; dosage 5 g/ha): 80%; Post-emergence action against DIGSA in % (DIGSA [8]; 5 g/ha): 80%; Post-emergence action against DIGSA (DIGSA [8]): 90%; Post-emergence action against ABUTH in % (ABUTH [9]; dosage 5 g/ha): 90%; Pre-emergence action against DIGSA in % (DIGSA [10]; dosage 20 g/ha): 90%; Pre-emergence action against DIGSA in % (DIGSA [10]; dosage 80 g/ha): 100%; Pre-emergence action against POLCO in % (POLCO): 90%; Post-emergence action against SETVI in % (SETVI [18]; dosage 5 g/ha): 90%; Post-emergence action against SETVI in % (SETVI [18]; dosage 20 g/ha): 100% |
| CCn1nnnc1NC(=O)c1ccc(C(F)(F)F)c(C(=O)NCC2CC2)c1C [Example 2-28] | 100 | 100 | 90 | 80 | 100 | 80 | 80 | 80 | 100 | 100 | 80 | 90 | – | – | 100 | 100 | 100 | 80 | 100 | 90 | Post-emergence action against DIGSA (DIGSA [8]): 80%; Post-emergence action against ABUTH in % (ABUTH [9]; dosage 5 g/ha): 80%; Pre-emergence action against DIGSA in % (DIGSA [10]; dosage 20 g/ha): 100%; Pre-emergence action against DIGSA in % (DIGSA [10]; dosage 80 g/ha): 100%; Post-emergence action at 5 g/ha against AVEFA in % (AVEFA [11]; 5 g/ha): 80%; Pre-emergence action against ECHCG in % (ECHCG [14]; 20 g/ha): 80%; Pre-emergence action against POLCO in % (POLCO): 90%; Pre-emergence action against VIOTR in % (VIOTR [17]; dosage 20 g/ha): 100% |
| CCn1nnnc1NC(=O)c1ccc(C(F)(F)F)c(C(=O)NCC2CC2)c1SC [Example 2-84] | 100 | 100 | 90 | 80 | 100 | 80 | 100 | 100 | 100 | 100 | 90 | 100 | 100 | 80 | 100 | 100 | 100 | 80 | 100 | 100 | Pre-emergence action against VERPE in % (VERPE [3]; dosage 20 g/ha): 80%; Post-emergence action against VIOTR in % (VIOTR [20]; 5 g/ha): 100%; Post-emergence action against VIOTR in % (VIOTR [20]; 20 g/ha): 100%; Post-emergence action against ALOMY in % (ALOMY [21]): 90%; Pre-emergence action against ECHCG in % (ECHCG [14]; 20 g/ha): 90%; Pre-emergence action against VIOTR in % (VIOTR [17]; dosage 20 g/ha): 80%; Pre-emergence action against PHBPU in % (PHBPU [22]): 90%; Post-emergence action against SETVI in % (SETVI [18]; dosage 5 g/ha): 80%; Post-emergence action against SETVI in % (SETVI [18]; dosage 20 g/ha): 100% |
| CCn1nnnc1NC(=O)c1ccc(C(F)F)c(C(=O)NCC(F)F)c1SC [Example 2-92] | 100 | 100 | 90 | 100 | 100 | 90 | 80 | 100 | 100 | 100 | 90 | 80 | 100 | 90 | 100 | 100 | 100 | 80 | 100 | 80 | Pre-emergence action against SETVI in % (SETVI [4]; dosage 20 g/ha): 100%; Post-emergence action against VIOTR in % (VIOTR [20]; 5 g/ha): 100%; Post-emergence action against VIOTR in % (VIOTR [20]; 20 g/ha): 100%; Post-emergence action against ALOMY in % (ALOMY [21]): 80%; Post-emergence action against ABUTH in % (ABUTH [9]; dosage 5 g/ha): 80%; Pre-emergence action against AVEFA (AVEFA [19]; 20 g/ha, scored visually after 3 weeks, 100% = plants have died, 0% = like control plants): 80%; Pre-emergence action against VIOTR in % (VIOTR [17]; dosage 20 g/ha): 90%; Pre-emergence action against PHBPU in % (PHBPU [22]): 90%; Post-emergence action against SETVI in % (SETVI [18]; dosage 5 g/ha): 80%; Post-emergence action against SETVI in % (SETVI [18]; dosage 20 g/ha): 100% |
| CCn1nnnc1NC(=O)c1ccc(C(F)F)c(C(=O)NCC(F)F)c1Br [Example 2-230] | 100 | 100 | – | 100 | 90 | – | – | – | 90 | 100 | 80 | 80 | 100 | 90 | 90 | 100 | 100 | – | 100 | 80 | Post-emergence action against ALOMY in % (ALOMY [21]): 90%; Post-emergence action against DIGSA (DIGSA [8]): 90%; Pre-emergence action against DIGSA in % (DIGSA [10]; dosage 20 g/ha): 100%; Pre-emergence action against DIGSA in % (DIGSA [10]; dosage 80 g/ha): 100%; Pre-emergence action against VIOTR in % (VIOTR [17]; dosage 20 g/ha): 90%; Pre-emergence action against PHBPU in % (PHBPU [22]): 80%; Post-emergence action against SETVI in % (SETVI [18]; dosage 20 g/ha): 100% |
| CCn1nnnc1NC(=O)c1ccc(C(F)F)c(C(=O)NC(C)C2CC2)c1SC (stereo not shown) [Example 2-351] | 100 | 100 | 80 | 100 | 100 | 90 | 100 | 100 | 100 | 100 | 80 | 80 | 100 | 90 | 100 | 100 | 80 | 80 | 100 | 80 | Post-emergence action against VIOTR in % (VIOTR [20]; 5 g/ha): 100%; Post-emergence action against VIOTR in % (VIOTR [20]; 20 g/ha): 100%; Post-emergence action against ALOMY in % (ALOMY [21]): 80%; Pre-emergence action against VIOTR in % (VIOTR [17]; dosage 20 g/ha): 100%; Pre-emergence action against PHBPU in % (PHBPU [22]): 80% |
